Source: PMC12607897, “Inhibition of HIV-1 replication by primer RNA packaging inhibitors” (mBio, 2025)
Read-outs that look alike come from different tables or passages of the source.

What was measured:
[1] = biological target: T1, mLysRS:IN interaction (human mLysRS, HIV-1 IN) (UniProt P12497+Q15046); test: HTRF assay of mLysRS:IN interaction; assay type: binding, human / HIV-1; settings: for effect on the mLysRS:IN interaction in the HTRF assay: dihydropyridine derivatives, Fig. S2
T1 construct: made in house
Method: Fig 1 Determination of the half-maximal inhibitory concentration (IC50) of the drugs in the mLysRS:IN binding assay. The binding of mLysRS to IN (red) or p38 (blue) was monitored in the HTRF assay in the presence of increasing drug concentrations (9–1,000 µM). The experimental values (symbols) were fitted (curves) to the equation Y = Ymin + {(Ymax − Ymin)/[1 + (X/IC50)^n]}, where n is the Hill coefficient. […] Proteins were isolated as described previously ([4]). Several batches of IN were used throughout this study. […] The molecules are dissolved in DMSO at a final concentration of 10 mM. After a 1 h incubation on ice, antibodies (Cisbio) directed to the His-tag and conjugated with Eu^3+ cryptate (Cisbio #61HISKLB) and the HA-tag conjugated with XL665 (Cisbio #610HAXLB) were added, and incubation was continued for 30 min. After the addition of 50 mM KF, fluorescence of Eu^3+ cryptate and of XL665 was recorded at 620 nm (I620) and 665 nm (I665), respectively, following excitation of Eu^3+ cryptate at 317 nm, in an Infinite M1000 PRO microplate reader (TECAN). The results were expressed as the ratio of I665/I620.

[2] = test system: MT4 cells; test: cell toxicity by MTT assay; assay type: cell-based, human; settings: MTT assay, 1, 3.3 or 10 µM
Method: (§1) Fig 3 Effect of the inhibitors on HIV-1 replication and cell toxicity. MT4 cells were infected with NL4-3-GFP virus. Two days after infection, inhibitors were added to the culture medium at final concentrations of 1, 3.3, or 10 µM. The final concentration of DMSO was 0.1%. Five days after infection, GFP expression was quantified by flow cytometry, and cell viability was determined by the MTT assay. NInf corresponds to non-infected cells. Six independent experiments were performed, and standard deviations are shown. A Student t-test was used to determine statistical significance compared with the control experiment with DMSO (*: P < 0.001; **: P < 0.0001).
Replication of the NL4-3 virus was determined either by the ELISA technique or in HeLa-P4 cells by the CPRG method as described previously ([29]). These are HeLa CD4 LTR-lacZ cells in which the expression of lacZ is induced by the HIV transactivator Tat, allowing precise quantification of the infectivity of HIV-1. The viral titer was determined by quantifying β-galactosidase activity in HeLa-P4 lysates in a colorimetric assay based on the cleavage of chlorophenol red-β-D-galactopyranoside (CPRG) by β-galactosidase. The cytotoxicity is evaluated by the MTT assay.

[3] = test system: HIV-1 NLENG1-IRES-GFP (NL4-3-GFP) virus in MT4 cells; test: ex vivo HIV-1 replication assay, GFP expression by flow cytometry in infected MT4 cells (multiple cycles); assay type: cell-based; settings: for GFP fluorescence, % of the value observed when DMSO was added alone: drug 10 µM, added 36–48 h after infection, read 72 h later
Method: To test this hypothesis, azelastine, lacidipine, and cilnidipine were used in an ex vivo assay to determine their effect on HIV-1 proliferation. MT4 cells were infected with NLENG1-IRES-GFP, a virus that allows for multiple cycles of infection, and the molecules were added to the medium 36–48 h after infection, before the completion of the first round of viral infection; 72 h after the drugs were added, when two rounds of HIV-1 infection were underway, the level of GFP fluorescence was determined by flow cytometry, as a marker of HIV-1 infection (Fig. 3, left panel). HIV-1 replication was inhibited in a dose-dependent manner. […]. […] At the same time, no drug toxicity was observed, as determined by the MTT assay (Fig. 3, right panel). […] The selectivity index (SI) ([24]) of the three drugs, defined as the ratio of 50% cytotoxic concentration (CC50; >20 µM) to 50% inhibitory concentration (IC50; ~5 µM), >4.
as §1
MT4 cell line ([26]) was maintained in RPMI 1640. HEK293T and HeLa-P4 cells ([27]) were maintained in Dulbecco’s modified Eagle medium (DMEM). All media were supplemented with Glutamax and with 10% heat-inactivated fetal calf serum (Hyclone) and 1% penicillin/streptomycin (100 units/mL) (Gibco). All media were purchased from Gibco (Life Technologies Co.). All cell lines used here were incubated at 37 °C, under 5% CO2 atmosphere. HIV-1 stocks were prepared by calcium phosphate-mediated transfection of HEK293T cells, as previously described ([22]), with shuttle vector plasmids encoding HIV-1 NL4-3 (GenBank: AF324493.1) or NLENG1-IRES-GFP ([28]). The latter vector comes from the HIV NL4-3 strain and contains a gfp-IRES-nef cassette at the nef locus. […].
For NL4-3-GFP vectors, viral infection is followed by GFP expression (i.e., the percentage and geometric mean fluorescence intensity [MFI] of GFP^+ cells). Infectivity was estimated by flow cytometry using a FACS Celesta flow cytometer (BD Biosciences). Toxicity is also assessed by flow cytometry (side and forward scatter).

[4] = test system: HIV-1 NL4-3 virus particles; test: digital PCR / RT-dPCR of minus-strand strong stop cDNA and viral RNA in particles; assay type: cell-based; settings: 10 µM drug, 72 and 96 h after infection
Excerpt: We used digital RT-PCR and digital PCR to determine the viral mRNA and minus-strand strong stop viral cDNA content of the particles (Fig. 7; Fig. S6). The amount of early viral cDNA produced in the HIV-1 particles is a measure of the efficiency of the initiation step of reverse transcription, which requires the packaging of tRNA3^Lys at the budding step, the primer for cDNA synthesis.
Fig 7 Effect of drugs on viral synthesis of minus-strand strong stop cDNA. Viruses were harvested from the culture medium after 72 (red) or 96 h (blue) of infection of MT4 cells with NL4-3 viruses. Minus-strand strong stop viral DNA and viral RNA (vRNA) were quantified by digital PCR and RT-dPCR, respectively. Viruses were harvested from cultures grown in the presence of 10 µM of azelastine (Aze), lacidipine (Lac), or cilnidipine (Cil), or H2O or DMSO as controls. Values and the associated standard deviations (n = 3) are expressed as the ratios of the values obtained for the H2O or DMSO controls. […].
MT4 cells (2 × 10^6 cells) were infected with the NL4-3 viruses. After 4–5 h of infection at 37°C, cells were twice washed with PBS, incubated 5 min at 37°C in 0.25% trypsin-EDTA solution (Gibco) to eliminate viruses remaining in the medium, incubated 5 min at 37°C in complete RPMI medium, twice washed with PBS, resuspended in RPMI medium at a cell density of 200 × 10^3 cells/mL and incubated with 10 µM of azelastine (25 mM stock solution in H20), or lacidipine and cilnidipine (25 mM stock solution in DMSO). A second aliquot of the inhibitors was added to the culture medium 48 h after infection. […] All RNA and DNA quantifications were performed by digital PCR and RT-qPCR on a QIAcuity instrument (QIAGEN) using 26K 24-well nanoplates and the QIAcuity Probe PCR and One-Step Viral RT-PCR kits. Primers and probes were 5′-[…], 5′-[…], and 5′-[…] for the quantification of minus-strand strong-stop cDNA, and 5′-[…], 5′-[…], and 5′-[…] CGT for viral RNA quantification.

[5] = biological target: mLysRS (Homo sapiens, UniProt Q15046); test: tRNA aminoacylation assay; assay type: biochemical; settings: drug added up to 1 mM
Method: Initial rates of tRNA aminoacylation were measured at 25°C in 0.1 mL of 20 mM Imidazole-HCl buffer (pH 7.5), 100 mM KCl, 0.5 mM DTT, 12 mM MgCl2, 2 mM ATP, 180 µM ^14C-labeled lysine (NEN; 16.66 Ci/mol), and saturating amounts of global yeast tRNA ([30]). The incubation mixture contained catalytic amounts (2 nM) of mLysRS appropriately diluted in 10 mM Tris-HCl (pH 7.5), 10 mM 2-mercaptoethanol, containing bovine serum albumin at 4 mg/mL. Inhibitors were added at final concentrations ranging from 3.9 to 1,000 µM. One unit of activity is the amount of enzyme producing 1 nmol of lysine-tRNA^Lys/min, at 25°C.
Fig. S5. Effect of inhibitors on mLysRS activity. The tRNA-aminoacylation activity of mLysRS
was determined in the presence of increasing concentrations of the drugs. Two independent
experiments were performed and standard deviations are shown.
Fig. 6. Raw data of quantification of minus-strand strong stop viral DNA and viral RNA by
digital PCR from viruses recovered after 72 h incubation in the presence of 10 µM of the drugs.

[6] = HTRF, mLysRS 1.5 nM dimer, IN 25 nM dimer, read-out: half-maximal inhibitory concentration (IC50) in the mLysRS:IN assay

T1 sequence (Q15046 other isoform, or with tags, fused parts or gaps, other chains not shown): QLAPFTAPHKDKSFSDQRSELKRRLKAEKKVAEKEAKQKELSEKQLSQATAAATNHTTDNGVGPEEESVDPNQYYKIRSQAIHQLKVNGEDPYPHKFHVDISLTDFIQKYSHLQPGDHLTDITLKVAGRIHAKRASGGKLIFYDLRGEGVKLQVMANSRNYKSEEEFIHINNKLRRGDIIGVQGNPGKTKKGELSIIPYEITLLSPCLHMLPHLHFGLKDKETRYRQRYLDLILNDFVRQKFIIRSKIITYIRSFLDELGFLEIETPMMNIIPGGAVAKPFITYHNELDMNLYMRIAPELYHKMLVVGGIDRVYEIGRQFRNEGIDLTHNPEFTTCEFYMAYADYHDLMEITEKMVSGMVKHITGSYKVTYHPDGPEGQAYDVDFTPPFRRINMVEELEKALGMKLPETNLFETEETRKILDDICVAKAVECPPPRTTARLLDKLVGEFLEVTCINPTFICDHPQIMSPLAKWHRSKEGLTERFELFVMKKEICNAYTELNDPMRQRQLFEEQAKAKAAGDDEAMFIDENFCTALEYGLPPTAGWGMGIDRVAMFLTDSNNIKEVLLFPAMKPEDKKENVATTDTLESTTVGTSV
mLysRS, sequence (Q15046 31-625 isoform Q15046-2): as the sequence (Q15046 other isoform, or with tags, fused parts or gaps, other chains not shown) above

CCOC(=O)C1=C(C)NC(C)=C(C(=O)OCC)C1 [Diludine]
effect on the mLysRS:IN interaction in the HTRF assay [1]: did not significantly alter

COC(=O)C1=C(C)NC(C)=C(C(=O)OC(C)(C)CN(C)CCC(c2ccccc2)c2ccccc2)C1c1cccc([N+](=O)[O-])c1 (centres unmarked) [Lercanidipine]
cell toxicity [2]: higher cellular toxicity

CC1=C(C(=O)OC(C)C)C(c2cccc([N+](=O)[O-])c2)C(C(=O)OC2CN(C(c3ccccc3)c3ccccc3)C2)=C(N)N1 (centres unmarked) [azelnidipine]
cell toxicity [2]: higher cellular toxicity

CCCC(=O)OCOC(=O)C1=C(C)NC(C)=C(C(=O)OC)C1c1cccc(Cl)c1Cl (centres unmarked) [celvidipine]
effect on the mLysRS:IN interaction in the HTRF assay [1]: did not significantly alter

COCCOC(=O)C1=C(C)NC(C)=C(C(=O)OC/C=C/c2ccccc2)C1c1cccc([N+](=O)[O-])c1 (centres unmarked) [cilnidipine]
GFP fluorescence, % of the value observed when DMSO was added alone [3]: 18.9%
IC50 [1, 6]: 310 ± 30 µM
minus-strand strong stop cDNA in viruses, normalized to viral RNA [4]: significantly reduced
inhibition of Lysyl-tRNA^Lys synthesis [5]: did not inhibit

CCOC(=O)C1=C(C)NC(C)=C(C(=O)OC)C1c1cccc(Cl)c1Cl (centres unmarked) [felodipine]
effect on the mLysRS:IN interaction in the HTRF assay [1]: did not significantly alter

COC(=O)C1=C(C)NC(C)=C(C(=O)OC(C)C)C1c1cccc2nonc12 (centres unmarked) [isradipine]
IC50 [1]: > 500 µM

CCOC(=O)C1=C(C)NC(C)=C(C(=O)OCC)C1c1ccccc1/C=C/C(=O)OC(C)(C)C [lacidipine]
GFP fluorescence, % of the value observed when DMSO was added alone [3]: 27.2%
IC50 [1, 6]: 64 ± 8 µM
minus-strand strong stop cDNA in viruses, normalized to viral RNA [4]: significantly reduced
inhibition of Lysyl-tRNA^Lys synthesis [5]: 30%

CCOC(=O)C1=C(COCCN)NC(C)=C(C(=O)OC)[C@@H]1c1ccccc1Cl [levamlodipine]
effect on the mLysRS:IN interaction in the HTRF assay [1]: did not significantly alter

COC(=O)C1=C(C)NC(C)=C(C(=O)OCCN(C)Cc2ccccc2)C1c1cccc([N+](=O)[O-])c1 (centres unmarked) [nicardipine]
IC50 [1]: > 500 µM

COCCOC(=O)C1=C(C)NC(C)=C(C(=O)OC(C)C)C1c1cccc([N+](=O)[O-])c1 (centres unmarked) [nimodipine]
effect on the mLysRS:IN interaction in the HTRF assay [1]: did not significantly alter

COC(=O)C1=C(C)NC(C)=C(C(=O)OCC(C)C)C1c1ccccc1[N+](=O)[O-] (centres unmarked) [nisoldipine]
inhibition of HIV-1 replication in the ex vivo assay ([3]; NL4-3-GFP, Fig. S3): did not inhibit

CCOC(=O)C1=C(C)NC(C)=C(C(=O)OC)C1c1cccc([N+](=O)[O-])c1 (centres unmarked) [nitrendipine]
IC50 [1]: > 500 µM

COC(=O)C1=C(C#N)NC(C)=C(C(=O)OC(C)C)C1c1cccc([N+](=O)[O-])c1 (centres unmarked) [nivaldipine]
IC50 [1, 6]: > 500 µM
